Like-named read-outs stand apart in the source and are kept apart here. Blank lines part the entries; values can stand above or below the compound they belong to.
Assays:
androgen receptor (AR) = target: T1, androgen receptor (AR) (Homo sapiens, UniProt P10275); assay: AR antagonist luciferase gene reporter assay (AR plasmid pSVAR0 + MMTV-Luc, DHT at EC80)
T1 sequence (P10275 1-920): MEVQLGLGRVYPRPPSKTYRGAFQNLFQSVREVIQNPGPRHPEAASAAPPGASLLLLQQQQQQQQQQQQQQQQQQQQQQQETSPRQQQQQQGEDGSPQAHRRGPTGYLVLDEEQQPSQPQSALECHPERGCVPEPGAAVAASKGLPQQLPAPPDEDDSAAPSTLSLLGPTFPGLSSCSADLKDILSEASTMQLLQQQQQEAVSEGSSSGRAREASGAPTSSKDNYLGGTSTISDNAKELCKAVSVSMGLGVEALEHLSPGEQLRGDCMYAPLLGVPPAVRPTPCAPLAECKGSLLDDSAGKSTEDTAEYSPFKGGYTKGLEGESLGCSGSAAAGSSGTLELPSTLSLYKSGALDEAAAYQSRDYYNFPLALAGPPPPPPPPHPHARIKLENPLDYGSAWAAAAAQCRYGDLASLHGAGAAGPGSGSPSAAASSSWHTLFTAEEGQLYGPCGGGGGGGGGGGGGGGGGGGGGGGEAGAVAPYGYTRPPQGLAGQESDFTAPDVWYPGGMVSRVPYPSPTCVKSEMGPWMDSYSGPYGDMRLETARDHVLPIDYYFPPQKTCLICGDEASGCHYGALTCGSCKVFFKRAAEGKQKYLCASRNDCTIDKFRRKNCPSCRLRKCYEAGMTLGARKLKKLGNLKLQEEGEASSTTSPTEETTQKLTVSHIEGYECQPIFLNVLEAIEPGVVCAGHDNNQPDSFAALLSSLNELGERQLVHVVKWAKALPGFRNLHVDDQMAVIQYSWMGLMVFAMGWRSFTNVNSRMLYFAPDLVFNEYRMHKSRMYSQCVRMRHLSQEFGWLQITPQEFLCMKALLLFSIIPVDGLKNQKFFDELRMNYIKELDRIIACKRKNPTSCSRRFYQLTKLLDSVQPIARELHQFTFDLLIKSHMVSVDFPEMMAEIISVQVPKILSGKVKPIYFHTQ

[1] = Antagonist Activity in CV-1 IC50, luciferase reporter in AR-transfected cells, DHT at EC80, 24 h incubation, means ± SD of three independent experiments

SMILES: CC1(CO)C(=O)N(c2ccc(C#N)c(C(F)(F)F)c2)C(=O)N1c1ccc(Br)cc1 (stereo not shown) [7e, 4-(3-(4-bromophenyl)-4-(hydroxymethyl)-4-methyl-2,5-dioxoimidazolidin-1-yl)-2-(trifluoromethyl)benzonitrile]
Antagonist Activity in CV-1 Efficacy (androgen receptor (AR)): 95 ± 11.2%
IC50 (androgen receptor (AR); [1]): 84.2 ± 37.1 nM
melting point: 102 to 104 °C

SMILES: CC1(CO)C(=O)N(c2ccc(C#N)c(C(F)(F)F)c2)C(=S)N1c1ccc(O)cc1 (stereo not shown) [11a, 4-(4-(hydroxymethyl)-3-(4-hydroxyphenyl)-4-methyl-5-oxo-2-thioxoimidazolidin-1-yl)-2-(trifluoromethyl)benzonitrile]
Antagonist Activity in CV-1 Efficacy (androgen receptor (AR)): 90 ± 7.5%
IC50 (androgen receptor (AR); [1]): 3640 ± 932 nM
melting point: 203 to 205 °C

SMILES: Cc1ccc(N2C(=S)N(c3ccc(C#N)c(C(F)(F)F)c3)C(=O)C2(C)CO)cc1 (stereo not shown) [6b, 4-(4-(hydroxymethyl)-4-methyl-5-oxo-2-thioxo-3-(p-tolyl)imidazolidin-1-yl)-2-(trifluoromethyl)benzonitrile]
Antagonist Activity in CV-1 Efficacy (androgen receptor (AR)): 86 ± 4.2%
IC50 (androgen receptor (AR); [1]): 549 ± 47.8 nM
melting point: 190 to 192 °C

SMILES: CC1(CO)C(=O)N(c2ccc(C#N)c(C(F)(F)F)c2)C(=O)N1c1ccccc1 (stereo not shown) [7a, 4-(4-(hydroxymethyl)-4-methyl-2,5-dioxo-3-phenylimidazolidin-1-yl)-2-(trifluoromethyl)benzonitrile]
Antagonist Activity in CV-1 Efficacy (androgen receptor (AR)): 101 ± 15.1%
IC50 (androgen receptor (AR); [1]): 94.8 ± 12.8 nM
melting point: 187 to 189 °C

SMILES: CC1(CO)C(=O)N(c2ccc(C#N)c(C(F)(F)F)c2)C(=O)N1c1ccc(C#N)cc1 (stereo not shown) [7g, 4-(3-(4-cyanophenyl)-4-(hydroxymethyl)-4-methyl-2,5-dioxoimidazolidin-1-yl)-2-(trifluoromethyl)benzonitrile]
Antagonist Activity in CV-1 Efficacy (androgen receptor (AR)): 98 ± 11.6%
IC50 (androgen receptor (AR); [1]): 61 ± 6.1 nM

SMILES: CC1(CO)C(=O)N(c2ccc(C#N)c(C(F)(F)F)c2)C(=O)N1c1ccc(Cl)cc1 (stereo not shown) [7d, 4-(3-(4-chlorophenyl)-4-(hydroxymethyl)-4-methyl-2,5-dioxoimidazolidin-1-yl)-2-(trifluoromethyl)benzonitrile]
Antagonist Activity in CV-1 Efficacy (androgen receptor (AR)): 94 ± 9.7%
IC50 (androgen receptor (AR); [1]): 68.6 ± 22.4 nM
melting point: 152 to 154 °C

SMILES: CNC(=O)c1ccc(N2C(=S)N(c3ccc(C#N)c(C(F)(F)F)c3)C(=O)C2(C)CO)cc1F (stereo not shown) [6k, 4-(3-(4-cyano-3-(trifluoromethyl)phenyl)-5-(hydroxymethyl)-5-methyl-4-oxo-2-thioxoimidazolidin-1-yl)-2-fluoro-N-methylbenzamide]
Antagonist Activity in CV-1 Efficacy (androgen receptor (AR)): 88 ± 3.5%
IC50 (androgen receptor (AR); [1]): 126 nM

IC50 (androgen receptor (AR)): 139 ± 28.1 nM
Antagonist Activity in CV-1 Efficacy (androgen receptor (AR); luciferase reporter in AR-transfected cells, DHT at EC80, 24 h, enzalutamide = 100, means ± SD of three independent experiments): 81.64 ± 5.92%
melting point: 119 to 121 °C
SMILES: CN1CCC(Oc2ccc(N3C(=S)N(c4cnc(C#N)c(C(F)(F)F)c4)C(=O)C3(C)CO)cc2)CC1 (stereo not shown) [19d, 5-(4-(hydroxymethyl)-4-methyl-3-(4-((1-methylpiperidin-4-yl)oxy)phenyl)-5-oxo-2-thioxoimidazolidin-1-yl)-3-(trifluoromethyl)picolinonitrile]

SMILES: CC(=O)Nc1ccc(N2C(=O)N(c3ccc(C#N)c(C(F)(F)F)c3)C(=O)C2(C)CO)cc1 (stereo not shown) [compound 10, N-(4-(3-(4-cyano-3-(trifluoromethyl)phenyl)-5-(hydroxymethyl)-5-methyl-2,4-dioxoimidazolidin-1-yl)phenyl)acetamide]
Antagonist Activity in CV-1 Efficacy (androgen receptor (AR)): 84 ± 8.6%
IC50 (androgen receptor (AR); [1]): > 5000 nM
melting point: 124 to 126 °C

SMILES: CC1(CO)C(=O)N(c2ccc(C#N)c(C(F)(F)F)c2)C(=O)N1c1ccc(F)cc1 (stereo not shown) [7c, 4-(3-(4-fluorophenyl)-4-(hydroxymethyl)-4-methyl-2,5-dioxoimidazolidin-1-yl)-2-(trifluoromethyl)benzonitrile]
Antagonist Activity in CV-1 Efficacy (androgen receptor (AR)): 94 ± 14.6%
IC50 (androgen receptor (AR); [1]): 67.3 ± 15.5 nM
melting point: 208 to 210 °C

SMILES: CC1(CO)C(=O)N(c2ccc(C#N)c(C(F)(F)F)c2)C(=O)N1c1ccc(C(F)(F)F)cc1 (stereo not shown) [7i, 4-(4-(hydroxymethyl)-4-methyl-2,5-dioxo-3-(4-(trifluoromethyl)phenyl)imidazolidin-1-yl)-2-(trifluoromethyl)benzonitrile]
Antagonist Activity in CV-1 Efficacy (androgen receptor (AR)): 99 ± 12.5%
IC50 (androgen receptor (AR); [1]): 149 ± 30.4 nM
melting point: 161 to 163 °C
